Data reported in the SangsterLogP compilation.

Assays:
[1] = method code SF-EPR, from DOI: 10.1007/bf01870789, PMID: 2549250; settings: pH 12.0
[2] = method code SF-AS, from DOI: 10.1002/ddr.430140205; settings: pH 7.4
[3] = not given; remark: listed apart in the source
[4] = not given; remark: listed apart in the source
[5] = method code SF, from DOI: 10.1021/jm030913e.s001, PMID: 14736235; settings: pH 7.4
[6] = method code SF, from DOI: 10.1016/0048-3575(88)90017-x
[7] = method code SF-AS, from DOI: 10.1002/jps.2600650731; settings: pH 11.5
[8] = method code SF-AS, from DOI: 10.1007/bf01067967, PMID: 3820093; settings: pH 7.5
[9] = method code SF-AS, from DOI: 10.1007/bf02877675, PMID: 411721
[10] = method code SF, from DOI: 10.1515/bc.2002.085, PMID: 12108546
[11] = method code SF-AS, from PMID: 3699148; settings: pH 7.4
[12] = method code SF-CR+DM, from DOI: 10.1021/ja01573a017; settings: pH 6.5
[13] = not given; remark: listed apart in the source
[14] = method code SF-AS, from DOI: 10.1021/jm00223a031, PMID: 810572
[15] = method code SF-AS, from DOI: 10.1021/es00012a023, PMID: 22148214
[16] = method code SF-GLC, from DOI: 10.1021/je970069v
[17] = not given; remark: listed apart in the source
[18] = not given; remark: listed apart in the source
[19] = method code SF-AS, from DOI: 10.1021/jm00163a043, PMID: 2153206; settings: pH 7.0
[20] = method code SF-AS, from DOI: 10.1002/jps.2600800717, PMID: 1658297
[21] = method code SF, from DOI: 10.1021/jm00307a001, PMID: 5637185
[22] = method code SF-RC, from DOI: 10.1016/s0969-8051(98)00096-1, PMID: 10100217; settings: pH 7.4
[23] = method code SF-AS, from DOI: 10.1111/j.1476-5381.1988.tb11523.x, PMID: 2900037
[24] = method code SF-HPLC, from DOI: 10.1016/0006-2952(84)90322-8, PMID: 6704182
[25] = method code SF-HPLC, from DOI: 10.1016/0378-5173(87)90234-1; settings: pH 4.0
[26] = method code SF-HPLC, from PMID: 1515051; settings: pH 6.0
[27] = method code SF, from DOI: 10.1016/j.bmcl.2006.04.097, PMID: 16714112
[28] = method code SF-CR, from DOI: 10.1248/cpb.21.2417, PMID: 4779830; settings: pH 6.0

CC1(C)CC(N)CC(C)(C)N1O
logD [1]: 0.56

CCCCOc1ccc(CC(=O)O)cc1
logP: 2.94

CCc1[nH]c(=O)[nH]c1C(=O)c1ccncc1
logD [2]: 0.08

CCNc1nc(NC(C)CC)nc(OC)n1 (configuration not stated)
logP [3]: 2.96

[cH:1]1[c:2]([Cl:3])[c:4]2[cH:5][cH:6][cH:7][c:8]([Cl:9])[c:10]2[cH:11][cH:12]1
logP [4]: 4.67

CNC1CC(C)(C)N(O)C(C)(C)C1
logD [1]: 0.84

CC[C@@H](C(N)=O)N1CCCC1=O
logD [5]: -0.65

CC(=O)OCN1C(=O)c2cccc3cccc(c23)C1=O
logP [6]: 2.34

CN(C(=N)N)/C(N)=N/c1ccc(Cl)cc1
logD [7]: 1.58

CC(C)c1ccc(N)cc1
logD [8]: 2.31

Cc1ccc(NN=C(C#N)C#N)cc1
logP [9]: 3.02

CCCCOC(=O)C1(C)CCC=[N+]1[O-] (configuration not stated)
logP [10]: 0.12

NC(=O)c1cc(Cl)ccc1NCCO
logD [11]: 1.26

CN(CCO)C1CC(C)(C)N(O)C(C)(C)C1
logD [1]: 0.53

CCCCc1ccc(N)cc1
logD [8]: 3.05

CC(=O)OCN1C(=O)C=C(C)C1=O
logP [6]: 0.45

Cc1ccc(CCCC(N)=O)c(O)c1
logD [12]: 2.26

CC(C)(C)c1ccc(O)c(C(C)(C)C)c1
logP [13]: 4.74

COc1ccc(O)c2ncccc12
logP [14]: 2.06

O=[N+]([O-])c1ccc2c(O)cccc2c1
logD [12]: 3.5

CC(C)OC(=O)CS(=O)c1ccccc1[N+](=O)[O-] (configuration not stated)
logP [15]: 1.59

Cc1c(Cl)c(Cl)c(C(C)C)c(Cl)c1Cl
logP [16]: 6.8

N#CC(C#N)=NNc1ccccc1
logP [9]: 2.49

N#CC(C#N)=NNc1cccc(Cl)c1
logP [9]: 3.13

CON(C)C(=O)Nc1ccc(Cl)cc1
logP [17]: 2.16

Oc1c(Cl)cc(Cl)c2ccccc12
logD [12]: 4.76

Cc1cc(Cl)c(C(C)C)cc1Cl
logP [16]: 5.6

CC(C)OC(=O)CS(=O)c1ccc([N+](=O)[O-])cc1[N+](=O)[O-] (configuration not stated)
logP [15]: 1.61

CNc1ccccc1C
logP [18]: 2.16

CC(C)Cn1c(=O)n(C)c(=O)c2nc[nH]c21
logD [2]: 1.22

Cc1cn([C@H]2C=C[C@@H](CO)O2)c(=O)[nH]c1=S
logD [19]: 0.09

CC1(C)CC(N(N=O)C(=O)NC2C(O)OC(CO)C(O)C2O)CC(C)(C)N1O (configuration not stated)
logP [20]: 1.87

CC[C@@H](C(N)=O)N1C[C@H](CI)CC1=O
logD [5]: 0.51

O=c1[nH]c(=S)ccn1[C@H]1C=C[C@@H](CO)O1
logD [19]: -0.28

Clc1ccc2cccc(Cl)c2c1
logP [4]: 4.56

CCC1(CC)SCC(=O)NC1=O
logP [21]: 1.5

CC1(C)C(C=C(Cl)Cl)C1C(=O)OCc1cccc(Oc2ccccc2)c1 (configuration not stated)
logP [17]: 5.85

Cc1c(Cl)cc(C(C)C)c(Cl)c1Cl
logP [16]: 6.2

CNc1nc(NC(C)C)nc(SC)n1
logP [3]: 2.79

COC1=C(OC)C(=O)C(C)=CC1=O
logD [22]: 0.73

CNC(=NC#N)NCCSCc1csc(N=C(N)N)n1
logD ([23]; pH 9.0): 0.6

CC(=O)OCN1C(=O)C2CC=CCC2C1=O (configuration not stated)
logP [6]: 0.97

Cc1ccc2ccccc2n1
logP [18]: 2.59

O=c1ccn(C2OC(CO)C(O)C2O)c(=O)[nH]1 (configuration not stated)
logP [24]: -1.81

CC1(C)CC(N(N=O)C(=O)NC2C(O)OC(CO)C(O)C2O)C(C)(C)N1O (configuration not stated)
logP [20]: 1.81

CCCCCCOC(=O)n1cc(F)c(=O)[nH]c1=O
logD [25]: 2.04

Cc1ccnc2c(O)cccc12
logP [14]: 2.36

CCCOC(=O)n1c(-c2cscn2)nc2ccccc21
logD [26]: 2.98

C#CC(/C=C/Cl)(CC)OC(N)=O (configuration not stated)
logP [21]: 1.71

Cc1ccc(SCCNc2ccccc2C(N)=O)cc1
logD [11]: 3.15

Nc1ccc2ccccc2c1
logD [8]: 2.4

O=C(NCCCOc1cccc(N2CCCCC2)c1)c1ccccc1
logD ([23]; pH 7.5): 3.97

Fc1cccc(F)c1C1=NCCO1
logP [27]: 1.45

CCCCCC/N=C(N)/N=C(\N)Nc1ccc(Cl)cc1
logD [7]: 1.85

Oc1cccc2c(Cl)ccnc12
logP [14]: 2.67

COC(=O)n1c(-c2cscn2)nc2ccccc21
logD [26]: 2.05

NC(=O)c1ccccc1NCCO
logD [11]: -0.05

O=[N+]([O-])c1ccccc1C1=NCCO1
logP [27]: 1.27

CCOC(=O)C1(C)CCC=[N+]1[O-] (configuration not stated)
logP [10]: -0.82

Fc1cccc(Cl)c1C1=NCCO1
logP [27]: 1.89

C#CC(C=C)(CC)OC(N)=O (configuration not stated)
logP [21]: 1.09

COc1c(O)c(C)c(CCCCCCCCCCO)c(O)c1OC
logD [22]: 2.55

COC(=O)CSc1ccccc1[N+](=O)[O-]
logP [15]: 1.88

CCCCCCCCOC(=O)C1(C)CCC=[N+]1[O-] (configuration not stated)
logP [10]: 1.62

CN1C=CSC1NS(=O)(=O)c1ccc(N)cc1 (configuration not stated)
logD [28]: -0.07

c1ccc2[nH]c(-c3cscn3)nc2c1
logD [26]: 2.47

CCOP(=S)(OCC)Oc1ccc([N+](=O)[O-])cc1
logP [17]: 3.45

Cc1ccc(CC(=O)O)cc1
logP: 2.04

Nc1cc(-c2ccncc2)c[nH]c1=O
logD [2]: 0.54

Cc1ccccc1N(C)C
logP [18]: 2.81

O=C(c1ccccn1)n1c(=O)[nH]cc(F)c1=O
logD [25]: -0.06

CN1C=CC=CC1NS(=O)(=O)c1ccc(N)cc1 (configuration not stated)
logD [28]: -0.58

Clc1cccc2ccccc12
logP [4]: 3.9

CC(C)C(C(=O)O)c1ccc([N+](=O)[O-])cc1 (configuration not stated)
logP: 2.09

CN(N=O)C(=O)NC[C@H](O)[C@@H](O)[C@H](O)[C@H](O)CO
logP [20]: -0.96

CC(C)OC(=O)n1cc(F)c(=O)[nH]c1=O
logD [25]: 0.2

Cc1ccc(C)c(O)c1
logP [13]: 2.48

CCNc1nc(NCC)nc(OC)n1
logP [3]: 2.41

CC(C)(C)c1cc(C(C)(C)C)c(O)c(C(C)(C)C)c1
logP [13]: 6.3

COC1=C(OC)C(=O)C(CCCCCCCCCCO)=C(C)C1=O
logD [22]: 2.96

CC(=O)OC[C@H]1O[C@@H](n2ccc(N)nc2=O)[C@@H](OC(C)=O)[C@@H]1OC(C)=O
logP [24]: -0.8

CC(=O)Nc1ccn([C@@H]2O[C@H](COC(C)=O)[C@@H](OC(C)=O)[C@@H]2OC(C)=O)c(=O)n1
logP [24]: -0.16

CNC(=C[N+](=O)[O-])NCCSCc1nccs1
logD ([23]; pH 9.0): -0.15

CN(c1nccs1)S(=O)(=O)c1ccc(N)cc1
logD [28]: 1.63

Cc1cn([C@H]2C[C@H](N=[N+]=[N-])[C@@H](CO)O2)c(=O)[nH]c1=S
logD [19]: 1.07

CCC[C@@H]1CC(=O)N([C@@H](CC)C(N)=O)C1
logD [5]: 1

CCC/N=C(N)/N=C(\N)Nc1ccc(Cl)cc1
logD [7]: 2.63
